The structures appear in SMILES notation.

As a reminder, the EC50 is the midpoint of the concentration-response curve. A higher EC50 goes with a need for much substance.

This test concerns the target T1, rat CB2 receptor (rCB2) (Rattus norvegicus, UniProt Q9QZN9).
T1 sequence (Q9QZN9 1-360): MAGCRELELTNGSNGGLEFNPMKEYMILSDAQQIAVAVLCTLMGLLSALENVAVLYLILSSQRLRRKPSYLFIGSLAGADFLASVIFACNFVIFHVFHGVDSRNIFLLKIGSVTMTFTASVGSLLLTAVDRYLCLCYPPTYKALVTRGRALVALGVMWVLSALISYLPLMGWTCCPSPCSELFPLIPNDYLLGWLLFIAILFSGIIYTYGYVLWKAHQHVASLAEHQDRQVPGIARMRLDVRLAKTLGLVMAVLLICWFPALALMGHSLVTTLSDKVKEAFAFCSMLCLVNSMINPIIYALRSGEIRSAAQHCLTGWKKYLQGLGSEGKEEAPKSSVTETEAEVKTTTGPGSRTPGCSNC
With `CNC(=O)[C@@H](NC(=O)c1nc(-c2ccccc2)n2c1CN(S(C)(=O)=O)CC2)C(C)(C)C` [Compound 92, (S)-N-(3,3-dimethyl-1-(methylamino)-1-oxobutan-2-yl)-7-(methylsulfonyl)-3-phenyl-5,6,7,8-tetrahydroimidazo[1,5-a]pyrazine-1-carboxamide], the concentration for a half-maximal effect (EC50) is 10 to 100 nM. The compound `C[C@@H](NC(=O)c1nc(-c2ccccc2)n2c1CN(C(=O)C1CCOC1)CC2)C1CCCCC1` (stereo partly drawn) [Compound 139, N-((R)-1-cyclohexylethyl)-3-phenyl-7-(tetrahydrofuran-3-carbonyl)-5,6,7,8-tetrahydroimidazo[1,5-a]pyrazine-1-carboxamide] registered an EC50 of 10 to 100 nM. The compound `CNC(=O)[C@@H](NC(=O)c1nc(-c2ccc3ccccc3c2)n2c1CN(C)CCC2)C(C)(C)C` [Compound 380, (S)-N-(3,3-dimethyl-1-(methylamino)-1-oxobutan-2-yl)-8-methyl-3-(naphthalen-2-yl)-6,7,8,9-tetrahydro-5H-imidazo[1,5-a][1,4]diazepine-1-carboxamide] yielded a 50% effective concentration (EC50) of 10 to 100 nM. `CNC(=O)[C@@H](NC(=O)c1nc(-c2ccsc2)n2c1CN(CC1CC1)CC2)C(C)(C)C` [Compound 74, (S)-7-(cyclopropylmethyl)-N-(3,3-dimethyl-1-(methylamino)-1-oxobutan-2-yl)-3-(thiophen-3-yl)-5,6,7,8-tetrahydroimidazo[1,5-a]pyrazine-1-carboxamide]: the EC50 lay within 10 to 100 nM.

Compound `CNC(=O)[C@@H](NC(=O)c1nc(-c2ccccc2)n2c1CN(c1cccc(Cl)n1)CC2)C(C)(C)C` [Compound 299, (S)-7-(6-chloropyridin-2-yl)-N-(3,3-dimethyl-1-(methylamino)-1-oxobutan-2-yl)-3-phenyl-5,6,7,8-tetrahydroimidazo[1,5-a]pyrazine-1-carboxamide] showed an EC50 of 10 to 100 nM. `CNC(=O)[C@@H](NC(=O)c1nc(-c2ccc(F)c(C)c2)n2c1CNCC2)C(C)(C)C` [Compound 7, (S)-N-(3,3-dimethyl-1-(methylamino)-1-oxobutan-2-yl)-3-(4-fluoro-3-methylphenyl)-5,6,7,8-tetrahydroimidazo[1,5-a]pyrazin-1-carboxamide] displayed an EC50 of 10 to 100 nM. As to `CC(C)(C)CNC(=O)c1nc(-c2ccccc2)n2c1CN(S(=O)(=O)c1ccccc1)CC2` [Compound 104, N-neopentyl-3-phenyl-7-(phenylsulfonyl)-5,6,7,8-tetrahydroimidazo[1,5-a]pyrazine-1-carboxamide], the concentration for a half-maximal effect (EC50) lay within 10 to 100 nM.

`Cc1noc([C@@H](NC(=O)c2nc(-c3ccccc3)n3c2CN(CC(C)C)CC3)C(C)(C)C)n1` [Compound 90, (S)-N-(2,2-dimethyl-1-(3-methyl-1,2,4-oxadiazol-5-yl)propyl)-7-isobutyl-3-phenyl-5,6,7,8-tetrahydroimidazo[1,5-a]pyrazine-1-carboxamide] came in with an EC50 of 0.1 to 10 nM.

With `CC(C)CN1CCn2c(-c3ccccc3)nc(C(=O)NCC3CCOCC3)c2C1` [Compound 167, 7-isobutyl-3-phenyl-N-((tetrahydro-2H-pyran-4-yl)methyl)-5,6,7,8-tetrahydroimidazo[1,5-a]pyrazine-1-carboxamide], the EC50 was in the range of 10 to 100 nM. The compound `Cc1noc([C@@H](NC(=O)c2nc(-c3ccccc3)n3c2CN(C(C)C)CC3)C(C)(C)C)n1` [Compound 89, (S)-N-(2,2-dimethyl-1-(3-methyl-1,2,4-oxadiazol-5-yl)propyl)-7-isopropyl-3-phenyl-5,6,7,8-tetrahydrimidazo[1,5-a]pyrazine-1-carboxamide] returned a half-maximal effective concentration (EC50) of 0.1 to 10 nM. For the compound `CNC(=O)[C@@H](NC(=O)c1nc(-c2ccccc2)n2c1CN(C(C)C)CC2)C(C)(C)C` [Compound 85, (S)-N-(3,3-dimethyl-1-(methylamino)-1-oxobutan-2-yl)-7-isopropyl-3-phenyl-5,6,7,8-tetrahydroimidazo[1,5-a]pyrazine-1-carboxamide], the half-maximal effective concentration (EC50) was in the range of 10 to 100 nM. The compound `CNC(=O)[C@@H](NC(=O)c1nc(-c2ccccc2)n2c1CN(Cc1cccn1C)CC2)C(C)(C)C` [Compound 71, (S)-N-(3,3-dimethyl-1-(methylamino)-1-oxobutan-2-yl)-7-((1-methyl-1H-pyrrol-2-yl)methyl)-3-phenyl-5,6,7,8-tetrahydroimidazo[1,5-a]pyrazine-1-carboxamide] came in with a half-maximal effective concentration (EC50) of 10 to 100 nM.

`C[C@@H](NC(=O)c1nc(-c2ccccc2)n2c1CN(C(=O)OC(C)(C)C)CC2)C1CCCCC1` [Compound 37, (R)-tert-butyl 1-(1-cyclohexylethylcarbamoyl)-3-phenyl-5,6-dihydroimidazo[1,5-a]pyrazine-7(8H)-carboxylate] displayed an EC50 of 10 to 100 nM. Compound `COC(=O)N1CCn2c(-c3ccccc3)nc(C(=O)N[C@H](C)C3CCCCC3)c2C1` [Compound 185, (R)-methyl 1-(1-cyclohexylethylcarbamoyl)-3-phenyl-5,6-dihydroimidazo[1,5-a]pyrazine-7(8H)-carboxylate] yielded an EC50 of 10 to 100 nM. To `CNC(=O)[C@@H](NC(=O)c1nc(-c2ccc(C(F)(F)F)cc2)n2c1CNCC2)C(C)(C)C` [Compound 5, (S)-N-(3,3-dimethyl-1-(methylamino)-1-oxobutan-2-yl)-3-(4-(trifluoromethyl)phenyl)-5,6,7,8-tetrahydroimidazo[1,5-a]pyrazin-1-carboxamide] belongs 10 to 100 nM. In the case of `CNC(=O)[C@@H](NC(=O)c1nc(/C=C/CN2CCCC2)n2c1CN(C)CC2)C(C)(C)C` [Compound 288, (S,E)-N-(3,3-dimethyl-1-(methylamino)-1-oxobutan-2-yl)-7-methyl-3-(3-(pyrrolidin-1-yl)prop-1-enyl)-5,6,7,8-tetrahydroimidazo[1,5-a]pyrazine-1-carboxamide], the concentration giving a half-maximal response (EC50) lay within 0.1 to 10 nM. Compound `CNC(=O)[C@@H](NC(=O)c1nc(-c2ccc(C)c(F)c2)n2c1CN(C)CC2)C(C)(C)C` [Compound 240, (S)-N-(3,3-dimethyl-1-(methylamino)-1-oxobutan-2-yl)-3-(3-fluoro-4-methylphenyl)-7-methyl-5,6,7,8-tetrahydroimidazo[1,5-a]pyrazine-1-carboxamide] returned an EC50 of 10 to 100 nM.

Compound `CNC(=O)[C@@H](NC(=O)c1nc(-c2ccccc2)n2c1CN(S(=O)(=O)c1ccc(F)cc1)CC2)C(C)(C)C` [Compound 93, (S)-N-(3,3-dimthyl-1-(methylamino)-1-oxobutan-2-yl)-7-(4-fluorophenylsulfonyl)-3-phenyl-5,6,7,8-tetrahydroimidazo[1,5-a]pyrazine-1-carboxamide] displayed an EC50 of 10 to 100 nM. For `CNC(=O)[C@@H](NC(=O)c1nc(-c2ccccc2)n2c1CN(S(=O)(=O)c1ccccc1[N+](=O)[O-])CC2)C(C)(C)C` [Compound 97, (S)-N-(3,3-dimethyl-1-(methylamino)-1-oxobutan-2-yl)-7-(2-nitrophenylsulfonyl)-3-phenyl-5,6,7,8-tetrahydroimidazo[1,5-a]pyrazine-1-carboxamide], the half-maximal effective concentration (EC50) lay within 10 to 100 nM.

Compound `CNC(=O)[C@@H](NC(=O)c1nc(C2=CCNCC2)n2c1CN(C)CC2)C(C)(C)C` [Compound 274, (S)-N-(3,3-dimethyl-1-(methylamino)-1-oxobutan-2-yl)-7-methyl-3-(1,2,3,6-tetrahydropyridin-4-yl)-5,6,7,8-tetrahydroimidazo[1,5-a]pyrazine-1-carboxamide] displayed an EC50 of 10 to 100 nM. Regarding `CC(C)CN1CCn2c(-c3ccccc3)nc(C(=O)N[C@@H](C)c3ccccc3)c2C1` [Compound 145, (S)-7-isobutyl-3-phenyl-N-(1-phenylethyl)-5,6,7,8-tetrahydroimidazo[1,5-a]pyrazine-1-carboxamide], the EC50 lay within 10 to 100 nM. Consider `COC(=O)N1CCn2c(-c3ccc(Cl)cc3)nc(C(=O)N[C@H](CO)C(C)(C)C)c2C1` [Compound 184, (S)-methyl 3-(4-chlorophenyl)-1-(1-hydroxy-3,3-dimethylbutan-2-ylcarbamoyl)-5,6-dihydroimidazo[1,5-a]pyrazine-7(8H)-carboxylate], for which the concentration for a half-maximal effect (EC50) lay in the range of 10 to 100 nM. In the case of `COC(=O)N1CCn2c(-c3ccccc3)nc(C(=O)N[C@@H](C)c3ccccc3)c2C1` [Compound 179, (S)-methyl 3-phenyl-1-(1-phenylethylcarbamoyl)-5,6-dihydroimidazo[1,5-a]pyrazine-7(8H)-carboxylate], the EC50 was in the range of 10 to 100 nM. In the case of `CNC(=O)[C@@H](NC(=O)c1nc(-c2ccc(Cl)cc2F)n2c1CN(CC(C)C)CCC2)C(C)(C)C` [Compound 322, (S)-3-(4-chloro-2-fluorophenyl)-N-(3,3-dimethyl-1-(methylamino)-1-oxobutan-2-yl)-8-isobutyl-6,7,8,9-tetrahydro-5H-imidazo[1,5-a][1,4]diazepine-1-carboxamide], the EC50 lay within 10 to 100 nM. The same measure for `O=C(NC1CCCCC1)c1nc(-c2ccccc2)n2c1CN(CC1CCOC1)CC2` (stereo not drawn) [Compound 141, N-cyclohexyl-3-phenyl-7-((tetrahydrofuran-3-yl)methyl)-5,6,7,8-tetrahydroimidazo[1,5-a]pyrazine-1-carboxamide]: 10 to 100 nM. The compound `CNC(=O)[C@@H](NC(=O)c1nc(-c2ccccc2)n2c1CN(Cc1ccco1)CC2)C(C)(C)C` [Compound 64, (S)-N-(3,3-dimethyl-1-(methylamino)-1-oxobutan-2-yl)-7-(furan-2-ylmethyl)-3-phenyl-5,6,7,8-tetrahydroimidazo[1,5-a]pyrazine-1-carboxamide] displayed an EC50 of 10 to 100 nM. For the compound `CNC(=O)[C@H](CC(C)C)NC(=O)c1nc(-c2ccc(Cl)c(F)c2)n2c1CN(C)CC2` [Compound 277, (S)-3-(4-chloro-3-fluorophenyl)-7-methyl-N-(4-methyl-1-(methylamino)-1-oxopentan-2-yl)-5,6,7,8-tetrahydroimidazo[1,5-a]pyrazine-1-carboxamide], the 50% effective concentration (EC50) lay in the range of 10 to 100 nM.

The values above are taken from patent US8431565B2 (priority 2007, dated 2013).
